Source: patent publication US20240156790A1, “COMPOUNDS, COMPOSITIONS, AND METHODS FOR MODULATING FERROPTOSIS AND TREATING EXCITOTOXIC DISORDERS” (THE TRUSTEES OF COLUMBIA UNIVERSITY IN THE CITY OF NEW YORK, priority 2018, published 2024)

Legend:
[1] = TH-2-31 IP PK Study, 40 mg/kg; type: in vivo, C57BL/6 mice; settings: 40 mg/kg IP, up to eight hours
Method: C57BL/6 mice (8-weeks of age and ˜25 g weight) were weighed before injection and divided into groups of 2 male and female mice per cage. TH-2-31 was dissolved in 5% DMSO/95% of 65% v/v of 25% w/v 2-hydroxypropyl-3-cyclodextrin (Cayman Chemical) dissolved in 20% EtOH, 30% v/v Poly(ethylene glycol)-400 (Sigma Aldrich 202398), 5% v/v Tween 80 (Fluka 59924) to create a 4 mg/mL solution. The same formulation without TH-2-31 was used as a vehicle control. The solution was sterilized using a […] Steriflip filter unit (Thomas Scientific 1189Q46). Mice were dosed IP and euthanized by CO2 asphyxiation for 3 min at 0, 1, 2, 4, and 8 h after administration. To ensure that the vehicle was well-tolerated 4 mice were treated with vehicle and euthanized 4 h after administration. ˜0.5 mL of blood was collected via cardiac puncture and immediately put in K3 EDTA microtubes ([…] 41.1504.105) and kept on ice. Organs were harvested, placed in Eppendorf tubes, and frozen on dry ice. Blood samples were centrifuged for 10 min at 2,100×g at 4° C., then plasma was transferred to a clean tube and frozen on dry ice. […] After drying, the samples were resuspended in 100 μL of methanol and analyzed by UPLC-MS described below. The concentration of TH-2-31 was determined against a standard curve with a linear fit and the data plot in GraphPad Prism 9 and fit with a one phase decay. […]

[2] = Microsomal stability, human liver microsomes (Table 1); type: in vitro ADME; settings: liver microsomes; Human: Pooled, 50 donors; read-out: Microsomal Stability t1/2 (converted)
[3] = Plasma stability, rat (Table 1); type: in vitro ADME
[4] = Plasma stability, human (Table 1); type: in vitro ADME
[5] = Microsomal stability, pig (Table 1); type: in vitro ADME; settings: liver microsomes; Pig: Göttingen Minipig; read-out: Microsomal Stability t1/2
HT-1080 cells = test: Rescue activity of selected Fer-1 analogs, dose-response in HT-1080 cells (cell titer glo); type: cell-based
Method: Selected Fer-1 analogs containing a pyridine moiety (FIG. 4) were tested to examine their efficacy and overall potency in inhibiting ferroptosis. For each of these compounds, dose-response curves were generated in HT-1080 cells looking at the effectiveness of the molecules in inhibiting ferroptosis induced by either 3 μM IKE or 0.2 μM RSL3, Fer-1 was used as a positive control. For each dose-response curve, 1,000 cells/well were seeded in a 384 well plate and allowed to adhere overnight prior to treating with compound from a daughter plate. Cells were treated for 48 hours, unless otherwise noted, prior to viability being analyzed using cell titer glo (40 μL per well). All liquid handling was performed using the BioMek. All samples were prepared in triplicate, unless otherwise noted.

| Compound | accumulation in plasma and brain, in words [1] | half-life [2] | Plasma Stability at six hours (% remaining) [3] | Plasma Stability at six hours (% remaining) [4] | half-life [5] | death observed with RSL3 (HT-1080 cells; 0.2 μM RSL3, inhibitor range 10 μM-0 μM) | rescue against IKE and erastin (HT-1080 cells; inhibitor 1 μM-0 μM, 3 μM IKE, 10 μM erastin, 48 hours) |
| --- | --- | --- | --- | --- | --- | --- | --- |
| Cc1noc(-c2cnc(NC3CCCCC3)c(NC3CCCCC3)c2)n1 [TH-2-31, N^2,N^3-dicyclohexyl-5-(3-methyl-1,2,4-oxadiazol-5-yl)pyridine-2,3-diamine] | stably accumulate at micromolar concentrations in plasma and brain even eight hours after | – | – | – | – | – | – |
| CCOC(=O)c1ccc(NC2CCCCC2)c(N)c1 [Fer-1, Ferrostatin-1, reference compound] | – | 11.4 min | 0-4% | 100% | 16.2 min | No death was observed | ~50% |
